Target: T1, Or22a (Drosophila melanogaster, UniProt P81909)
T1 construct: his-tag; made in house; host or cells: baculovirus-infected Sf9 cells
T1 sequence (P81909 1-397): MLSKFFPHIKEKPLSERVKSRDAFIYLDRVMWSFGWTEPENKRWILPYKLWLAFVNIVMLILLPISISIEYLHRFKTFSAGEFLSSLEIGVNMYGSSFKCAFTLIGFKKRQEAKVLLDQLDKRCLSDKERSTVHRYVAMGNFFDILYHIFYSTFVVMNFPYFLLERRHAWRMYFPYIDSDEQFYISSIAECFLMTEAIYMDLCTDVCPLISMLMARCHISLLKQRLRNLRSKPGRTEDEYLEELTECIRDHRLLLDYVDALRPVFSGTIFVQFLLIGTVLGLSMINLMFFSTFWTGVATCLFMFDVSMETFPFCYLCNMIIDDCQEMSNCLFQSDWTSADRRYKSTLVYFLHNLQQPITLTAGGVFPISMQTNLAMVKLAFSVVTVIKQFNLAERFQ
Assay: Droplet interface bilayer ion channel recording, Or22a only
Type: biochemical
Details: DIB, 10 μM ligand, holding potential +/−150, +/−100, +/−50 mV
Method: Bilayers were formed between two droplets formed within a PMMA chamber filled with 1 mg/ml DPhPC in undecane and AR20 silicone oil (1:1 ratio). The first step in this process was to deposit a 50 nl droplet onto the stationary silver electrode positioned at the base of the well; this droplet consisted of an aqueous solution containing 300 mM NaCl, 10 mM HEPES (pH 7.4), containing the odorant receptor proteins in proteoliposomes (at a 1:20 dilution from the proteoliposome preparation), […] The second droplet was mounted onto a second silver electrode which was held in the oil and lipid mixture using a YOU-3 manipulator (Narishige, Japan). […] Once the droplets were in contact a bilayer formed spontaneously within 1 minute (as determined by visual assessment and an increase in the bilayer capacitance as measured with a capacitance voltage protocol using the Pico2 amplifier). Insertion of an active channel was determined by a change in current while clamping the voltage at 50 mV. […]
Currents were recorded with a Pico2 or an eONE-HS amplifier (Tecella, USA and Elements, Italy, respectively) with built-in digitizers, operating in gap-free acquisition mode at a sampling frequency of 20 kHz, and using a 0.8 or 1.5 kHz low pass filter. […]
Data were analysed using ANA (Dr Pusch, Genoa), EDR (Elements, Italy) and WinWCP (Dr Dempster, University of Strathclyde). […]

## CCCCCC(=O)OC [methyl hexanoate]
  ion channel activity: No ion channel activity

Source: US20210255184A1, “Biosensor Device and Methods” (The New Zealand Institute for Plant and Food Research …, priority 2018, published 2021)
